Experimental data: patent US5409926A, “AT-2 antagonist inhibition of vascular restenosis” (Merck & Co., Inc., priority 1993, dated 1995)
Entries after “also recorded” stand apart in the source; their conditions may differ.

Legend:
Format in all cases: in vivo
[1] = system: restenosis in the rat; experiment: Effect of Compound II or Compound I pretreatment on restenosis in the rat; settings: 1 mg/kg/day i.v.; for Intimal Area / % Inhibition (intimal area): 48 h pretreatment, 14 days; for % Inhibition (intimal area): vs. control
Method: The Effect of Compound II on restenosis in the rat
Rats were pretreated with Compound II or Compound I for the 48 hour period prior to surgery as well as on the day of surgery (1 mg/kg/day, bolus i.v.). Drug treatment was continued at the time of angioplasty (1 mg/kg/day, continuous i.v.) for the duration of the experiments (14 days).

[2] = system: restenosis in the rat; experiment: Effect of Compound I on restenosis in the rat: dose-response study; settings: for I/M / Intima Area / Media Area: day 14
Method: The effect of Compound I on restenosis in the Rat: Dose-response study
Compound I was delivered as an i.v. bolus at the time of angioplasty (0.1-1.0 mg/kg) followed by continuous i.v. infusion (0.1-1.0 mg/kg/day) until sacrifice on day 14.

[3] = system: restenosis in the rat; experiment: Effect of AII + Compound I on restenosis in the rat; settings: for effect on formation of the neointima (in words): exogenous AII 14 ug/kg/hr i.v., with or without Compound I
Method: The effect of AII+Compound I on restenosis in the rat
AII was delivered by continuous i.v. infusion (14 ug/kg/hr) beginning at the time of angioplasty. Compound I was delivered as an i.v. bolus at the time of angioplasty (1.0 mg/kg) followed by continuous i.v. infusion (1.0 mg/kg/day). Rats were sacrificed on day 14.

[4] = system: restenosis in the rat; experiment: Effect of Compound I pretreatment and Compound I-Heparin combination therapy on restenosis in the rat; settings: for Intima Area: average ± sem
Method: The effect of Compound I pretreatment and Compound I--Heparin Combination therapy on restenosis in the rat
Compound I was delivered as an i.v. bolus at the time of angioplasty (1.0 mg/kg) followed by continuous i.v. infusion (1.0 mg/kg/day). Some groups were pretreated with Compound I. Pretreatment (PreRx) was begun 48 hr (1 mg/kg/day, i.v. bolus) prior to angioplasty. In all cases, Compound I treatment was continued for 14 days post-angioplasty. Other groups received Compound I in conjunction with heparin (0.3 mg/kg i.v. bolus+0.3 mg/kg/hr continuous i.v.) begun at the time of angioplasty and discontinued either 2 or 4 days later. The Hep 4d and Hep 2d data from above is included.

[5] = system: rat carotid artery model of balloon angioplasty; experiment: Enalaprilat, Compound II, Compound I in rat carotid artery model of balloon angioplasty; settings: 1 mg/kg/day continuous i.v.; for Intimal Area + sem / % Inhibition (intimal area): pretreatment (pt), 14 days; for % Inhibition (intimal area): vs. control; for inhibition of restenosis / neointima (in words): pretreatment
Method: AII Receptor Antagonist: The effect of enalaprilat, the AII (site 2) receptor antagonist, Compound II, and Compound II in combination with the AII (site 1) receptor antagonist, Compound I, were evaluated in the rat carotid artery model of balloon angioplasty. Rats were pretreated surgery and drag treatment was continued (1 mg/kg/day, continuous i.v.) by ALZET minipump for the duration of the experiments. Fourteen days after balloon angioplasty, the rats were sacrificed and the extent of restenosis was determined by morphometric measurements of the newly-formed intima.

[6] = system: restenosis in the rat model; experiment: Effects of Compound II (alone, + Compound I, + heparin) and heparin on restenosis in the rat model (balloon angioplasty); settings: for Intimal Area / % Inhibition of restenosis (intimal area): 14 days after balloon angioplasty, Compounds 1 mg/kg/day i.v. with 48 h pretreatment; for Intimal Area: heparin 0.3 mg/kg bolus + 0.3 mg/kg/hr i.v. for 4 days; for % Inhibition of restenosis (intimal area): heparin 0.3 mg/kg/hr i.v. for 4 days, vs. control
Method: The effects of the angiotensin II (Site II) receptor antagonist Compound II on restenosis in the rat model
A vehicle treatment group was compared to rats treated with: i) the AII (AT2) receptor antagonist, Compound II; ii) Compound II plus the AII (AT1) receptor antagonist, Compound I; (iii) Compound II+heparin; and iv) heparin only. Combination treatment with Compound II and Compound I were administered for the 48 hour period prior to surgery as well as on the day of surgery at 1 mg/kg/day by bolus i.v. Compound II and Compound I treatment was continued at the time of angioplasty at 1 mg/kg/day by continuous i.v. delivery via Alzet minipumps for the duration of the experiments (14 days). Heparin was delivered as a 0.3 mg/kg i.v. bolus at the time of angioplasty followed by continous i.v. delivery at 0.3 mg/kg/hr by Alzet minipump. Heparin treatment was discontinued 4 days later. Fourteen days after balloon angioplasty, the rats were sacrificed and the extent of restenosis was determined by morphometric measurements of the newly-formed intima.

[7] = system: restenosis in the rat; experiment: Effect of Heparin on restenosis in the rat: time course; settings: for I/M / Intima Area / Media Area: heparin 0.3 mg/kg/hr i.v.
Method: The effect of Heparin on restenosis in the rat: time course
Heparin (0.3 mg/kg/hr) was delivered by i.v. bolus (0.3 mg/kg) at the time of angioplasty followed by continuous i.v. delivery for 2, 4 or 14 days (0.3 mg/kg,hr). The animals were sacrificed on day 14.

[8] = PreRx (48 hr, 1 mg/kg/day), no heparin
[9] = no pretreatment, no heparin, Compound I 1.0 mg/kg/day i.v., 14 days
[10] = AII 14 ug/kg/hr i.v., Compound I 1.0 mg/kg bolus + 1.0 mg/kg/day i.v., day 14
[11] = no pretreatment, Hep 4d (0.3 mg/kg/hr i.v.)

Compound: CCc1nc2c(C)cc(C)nc2n1Cc1ccc(-c2ccccc2-c2nnn[nH]2)cc1 [Compound I, 5,7-dimethyl-2-ethyl-3-[(2'-(1H-tetrazol-5-yl)[1,1']-biphenyl-4-yl]-methyl]-3H-imidazo[4,5-b]pyridine]
- inhibition of neointimal formation (in words) [1]: may independently inhibit growth of the neointimal formation
- Intimal Area [1]: 0.121 ± 0.012 mm^2
- % Inhibition (intimal area) [1]: 41%
- I/M ([2]; 0.1 mg/kg/day i.v.): 1.64 ± 0.09
- Intima Area ([2]; 0.1 mg/kg/day i.v.): 0.212 ± 0.013 mm^2
- Media Area ([2]; 0.1 mg/kg/day i.v.): 0.129 ± 0.003 mm^2
- I/M ([2]; 0.3 mg/kg/day i.v.): 1.47 ± 0.19
- Intima Area ([2]; 0.3 mg/kg/day i.v.): 0.148 ± 0.014 mm^2
- Media Area ([2]; 0.3 mg/kg/day i.v.): 0.103 ± 0.009 mm^2
- I/M ([2]; 1.0 mg/kg/day i.v.): 1.24 ± 0.04
- Intima Area ([2]; 1.0 mg/kg/day i.v.): 0.149 ± 0.009 mm^2
- effect on formation of the neointima (in words) [3]: inhibits this stimulation
- I/M [4, 8]: 1.01 ± 0.07
- Media Area [4, 8]: 0.124 ± 0.006 mm^2
- Intima Area [4, 8]: 0.125 ± 0.010 mm^2
- I/M [4, 9]: 1.19 ± 0.04
- Media Area [4, 9]: 0.125 ± 0.006 mm^2
- Intima Area [4, 9]: 0.149 ± 0.009 mm^2
- reduction in the neointimal area (in words) ([4]; pretreatment for 2 days or co-administration of heparin): reduction in the neointimal area when compared with no pretreatment
- Intimal Area + sem [5]: 0.121 ± 0.012 mm^2
- % Inhibition (intimal area) [5]: 41%
- inhibition of restenosis / neointima (in words) [5]: independently inhibit neointima in this model

Compound: CCc1nc2ccc(N(Cc3ccccc3)C(=O)c3cccs3)cc2c(=O)n1Cc1ccc(-c2ccccc2-c2nn[nH]n2)cc1 [Compound II]
- Intimal Area [6]: 0.097 ± 0.027 mm^2
- % Inhibition of restenosis (intimal area) [6]: 53%
- effect upon neointimal formation (in words) ([6]; rat carotid model, administration alone): significant effect upon neointimal formation
- inhibition of neointimal formation (in words) [1]: may independently inhibit growth of the neointimal formation
- Intimal Area [1]: 0.097 ± 0.027 mm^2
- % Inhibition (intimal area) [1]: 53%
- inhibition of neointimal formation (in words) ([2]; 0.1-1.0 mg/kg/day i.v.): inhibits neointimal formation in a dose dependent manner
- Intimal Area + sem [5]: 0.097 ± 0.027 mm^2
- % Inhibition (intimal area) [5]: 53%
- inhibition of restenosis / neointima (in words) [5]: inhibit restenosis in this model; also recorded: independently inhibit neointima in this model

Compound: C[C@H](N[C@@H](CCc1ccccc1)C(=O)O)C(=O)N1CCC[C@H]1C(=O)O [enalaprilat]
- Intimal Area + sem [5]: 0.133 ± 0.016 mm^2
- % Inhibition (intimal area) [5]: 35%
- inhibition of restenosis / neointima (in words) [5]: inhibit restenosis in this model; also recorded: independently inhibit neointima in this model

Compound: Angiotensin II (DRVYIHPF; Angiotensin-2; UniProt P01019 25-32, looked up) [AII, powerful arterial vasoconstrictor]
- I/M [3, 10]: 1.92 ± 0.19
- Intima Area [3, 10]: 0.348 ± 0.047 mm^2
- Media Area [3, 10]: 0.176 ± 0.008 mm^2
- effect on formation of the neointima (in words) [3]: stimulates the formation of the neointima by almost two fold

Compound: heparin
- Intimal Area [6]: 0.158 ± 0.016 mm^2
- % Inhibition of restenosis (intimal area) [6]: 23%
- I/M ([4]; Hep 2d alone): 1.14 ± 0.13
- Media Area ([4]; Hep 2d alone): 0.130 ± 0.008 mm^2
- Intima Area ([4]; Hep 2d alone): 0.144 ± 0.012 mm^2
- I/M [4, 11]: 1.17 ± 0.10
- Media Area [4, 11]: 0.136 ± 0.010 mm^2
- Intima Area [4, 11]: 0.158 ± 0.016 mm^2
- I/M ([7]; 2 days): 1.14 ± 0.13
- Intima Area ([7]; 2 days): 0.144 ± 0.012 mm^2
- Media Area ([7]; 2 days): 0.130 ± 0.008 mm^2
- I/M ([7]; 4 days): 1.17 ± 0.10
- Intima Area ([7]; 4 days): 0.158 ± 0.016 mm^2
- Media Area ([7]; 4 days): 0.136 ± 0.010 mm^2
- I/M ([7]; 14 days): 0.77 ± 0.05
- Intima Area ([7]; 14 days): 0.098 ± 0.008 mm^2
- Media Area ([7]; 14 days): 0.128 ± 0.004 mm^2
- effect on formation of neointima (in words) ([7]; heparin alone, 2, 4 or 14 days): decreases the formation of neointima; also recorded: greatest degree of inhibition was observed when heparin was given for 14 days
